From ChEMBL document CHEMBL1201862, “PubChem BioAssay data set” (2004) come the findings set out here.

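In this assay, cells in 96-well plates receive the compound at five concentrations for 48 hours. Endpoints are linearly interpolated between the surrounding concentrations. GI50 is the concentration that inhibits growth by half.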 Active and inactive are the calls of the source. Rule as the data show it: active = GI50 up to about 1.1 µM and inactive = higher. A value given as a limit tells only on which side of the number the result lay.

The GI50 is the concentration at which growth is held to half of that of the control.

Some test systems named below: BT-549; HCC 2998; HCT-15; HOP-92; LOX IMVI; Malme-3M; NCI-H226; OVCAR-3; OVCAR-4; OVCAR-5; OVCAR-8; PC-3; RPMI-8226; SK-MEL-28; SK-MEL-5; U-251; UACC-62; HOP-62; SNB-75.
Common to all, as to assay: DTP human tumour cell line panel, 48 h

Turning to `O=C1CCC(=O)N1n1c(Cc2ccc(Cl)cc2)n[nH]c1=O`, the GI50 with BT-549 was > 100 µM (inactive); in the test with HCC 2998, > 100 µM (inactive); with HCT-15, above 100 µM; in the test on HOP-92, > 100 µM (inactive); with LOX IMVI it was > 100 µM (inactive); in the test on Malme-3M it was > 100 µM (inactive). In addition, the GI50 in the test with NCI-H226, in the test with OVCAR-3, with OVCAR-4, with OVCAR-5, in the test on OVCAR-8 and in the test with PC-3 was > 100 µM (inactive) throughout. Further, the GI50 in the test with RPMI-8226, with SK-MEL-28, with SK-MEL-5, in the test with U-251 and with UACC-62 was > 100 µM (inactive) each time.
For `CO/N=C(/C(=O)OC)c1ccccc1COc1ccccc1C(F)(F)F`, the GI50 in the test with BT-549 was 79.1 µM (inactive); in the test on HCC 2998, 27.9 µM (inactive); in the test with HCT-15, 33.3 µM; in the test on HOP-62, 63.8 µM (inactive); with HOP-92, 30.2 µM (inactive); with Malme-3M, 11.6 µM (inactive). Further, the GI50 with NCI-H226 was 68.4 µM (inactive); in the test with OVCAR-3 it was 23.8 µM (inactive); with OVCAR-4, 7.21 µM (inactive); in the test on OVCAR-5, > 100 µM (inactive); in the test on OVCAR-8, > 100 µM (inactive); with PC-3, 33.5 µM (inactive). The GI50 was 14.4 µM (inactive) in the test with RPMI-8226; 37.8 µM (inactive) in the test with SK-MEL-28; 6.22 µM (inactive) with SK-MEL-5; 31.6 µM (inactive) in the test on U-251; 26.3 µM (inactive) with UACC-62.
In the case of `C/C=C\C(CC(=O)NCCc1cn(C(=O)OCc2ccccc2)c2ccccc12)CC(=O)OC` (stereo not given), the GI50 in the test on BT-549 is 60 µM (inactive); in the test on HCC 2998, > 100 µM (inactive); in the test on HCT-15, above 100 µM; in the test on HOP-62, > 100 µM (inactive); in the test on HOP-92, 69 µM (inactive); in the test on Malme-3M, > 100 µM (inactive). Moreover, the GI50 in the test on OVCAR-3 was 69.7 µM (inactive); with OVCAR-4, 35.9 µM (inactive); in the test on OVCAR-5, > 100 µM (inactive); with OVCAR-8, > 100 µM (inactive); with PC-3, 50.2 µM (inactive); in the test on RPMI-8226, 58.7 µM (inactive). Further, the GI50 is > 100 µM (inactive) with SK-MEL-28; 34.9 µM (inactive) with SK-MEL-5; > 100 µM (inactive) with SNB-75; > 100 µM (inactive) with U-251; 90.4 µM (inactive) in the test on UACC-62.
As to `O=C(Nc1ccccc1)N1N=C(c2ccccc2)C1c1ccccc1` (stereo not given), the GI50 with BT-549 was 23.2 µM (inactive); in the test with HCC 2998 it was 31.3 µM (inactive); with HCT-15 it was 33.8 µM; in the test on HOP-92, 23.4 µM (inactive); with LOX IMVI, 29.9 µM (inactive); with Malme-3M, 30.5 µM (inactive). For the same compound, the GI50 with NCI-H226 was 18.8 µM (inactive); in the test on OVCAR-3, 20.7 µM (inactive); in the test with OVCAR-4 it was 41.1 µM (inactive); in the test with OVCAR-5 it was 23.2 µM (inactive); with OVCAR-8 it was 33.8 µM (inactive); in the test with PC-3 it was 18.8 µM (inactive). In addition, the GI50 in the test on RPMI-8226 is 14 µM (inactive); with SK-MEL-28, 53.7 µM (inactive); in the test on SK-MEL-5, 22.1 µM (inactive); in the test on SNB-75, 15.8 µM (inactive); in the test with U-251, 36.2 µM (inactive); in the test with UACC-62, 20.2 µM (inactive).
For `CC(=O)C(N1CCCCC1)C(O)(C(F)(F)F)C(F)(F)F` (stereo not given), the GI50 in the test with BT-549 is > 100 µM (inactive); in the test with HCC 2998, > 100 µM (inactive); in the test on HCT-15 it was 79.3 µM; in the test on HOP-92, 54.3 µM (inactive); in the test with LOX IMVI it was > 100 µM (inactive); in the test on Malme-3M, > 100 µM (inactive). Moreover, the GI50 in the test with NCI-H226 is > 100 µM (inactive); with OVCAR-3 it was 42.4 µM (inactive); with OVCAR-4, > 100 µM (inactive); in the test with OVCAR-5 it was > 100 µM (inactive); in the test on OVCAR-8 it was > 100 µM (inactive); in the test on PC-3 it was 36.6 µM (inactive). Further, the GI50 in the test on RPMI-8226 is 81.8 µM (inactive); in the test with SK-MEL-28 it was > 100 µM (inactive); with SK-MEL-5 it was 19.8 µM (inactive); in the test with SNB-75 it was 33.4 µM (inactive); in the test with U-251 it was 88.9 µM (inactive); in the test with UACC-62, 86.9 µM (inactive).
Consider `C=CC[C@H](O)[C@@](NC(=O)OCc1ccccc1)(Sc1ccc(C)cc1)C(F)(F)F`, for which the GI50 in the test on BT-549 was 10.9 µM (inactive); in the test on HCC 2998 it was > 100 µM (inactive); with HCT-15, 24.9 µM; in the test with HOP-62, 28.9 µM (inactive); in the test with HOP-92, 38.6 µM (inactive); in the test on LOX IMVI, 4.44 µM (inactive). Moreover, the GI50 with Malme-3M was 56.8 µM (inactive); in the test on NCI-H226 it was 16.5 µM (inactive); in the test with OVCAR-3, 21.8 µM (inactive); in the test on OVCAR-4, 28.2 µM (inactive); in the test with OVCAR-5 it was 28.3 µM (inactive); in the test with OVCAR-8 it was 16.9 µM (inactive). Also, the GI50 in the test with PC-3 is 29.8 µM (inactive); in the test with RPMI-8226 it was 23.4 µM (inactive); in the test on SK-MEL-28, 43.7 µM (inactive); with SK-MEL-5 it was 26.9 µM (inactive); in the test with U-251, 14.5 µM (inactive); with UACC-62 it was 30.7 µM (inactive).
`COc1ccc2c(c1)C1c3ccccc3CCN1CCC2` (stereo not given): the GI50 with BT-549 is 24.9 µM (inactive); in the test with HCC 2998 it was 23.4 µM (inactive); with HCT-15, 39.4 µM; with HOP-62 it was 58.6 µM (inactive); in the test with HOP-92, 70.3 µM (inactive); in the test on LOX IMVI, 44.7 µM (inactive). The GI50 in the test on NCI-H226 was 45.3 µM (inactive); in the test with OVCAR-3, 73.8 µM (inactive); with OVCAR-4 it was > 100 µM (inactive); in the test with OVCAR-5 it was 93.1 µM (inactive); in the test with OVCAR-8 it was 54.5 µM (inactive); in the test with PC-3, 29.2 µM (inactive). Also, the GI50 with RPMI-8226 is 28.8 µM (inactive); in the test on SK-MEL-28, 74 µM (inactive); in the test with SK-MEL-5 it was 29.2 µM (inactive); in the test on SNB-75 it was 19.3 µM (inactive); in the test with U-251 it was 32.6 µM (inactive); in the test on UACC-62 it was 23.7 µM (inactive).
Turning to `O=C(Nc1ccccc1)c1cc(S(=O)(=O)N2CCNNC2=O)c(S)cc1Cl`, the GI50 is 37.5 µM (inactive) in the test with BT-549; > 100 µM (inactive) in the test with HCC 2998; 59.2 µM in the test on HCT-15; 47.3 µM (inactive) in the test with HOP-92; 43.7 µM (inactive) in the test on LOX IMVI; 56.1 µM (inactive) in the test with Malme-3M. The GI50 in the test with NCI-H226 was > 100 µM (inactive); with OVCAR-3, > 100 µM (inactive); with OVCAR-4, > 100 µM (inactive); in the test with OVCAR-5, > 100 µM (inactive); in the test with OVCAR-8, 32.3 µM (inactive); in the test on PC-3, > 100 µM (inactive). Moreover, the GI50 with RPMI-8226 is 33.9 µM (inactive); with SK-MEL-28, > 100 µM (inactive); in the test with SK-MEL-5, > 100 µM (inactive); in the test with SNB-75 it was > 100 µM (inactive); in the test with U-251, > 100 µM (inactive); in the test with UACC-62 it was > 100 µM (inactive).
For the compound `O=C(c1ccccc1)c1ccc(-n2c3ccccc3c3ccc4c(c32)C(=O)C=CC4=O)cc1`, the GI50 in the test on BT-549 is 20.3 µM (inactive); in the test on HCC 2998, 11.2 µM (inactive); with HCT-15, 11.3 µM; in the test with HOP-62, 16.4 µM (inactive); with HOP-92, 3.48 µM (inactive); in the test with LOX IMVI it was 3.41 µM (inactive). Further, the GI50 was 23.3 µM (inactive) with NCI-H226; 7.59 µM (inactive) with OVCAR-3; 16.3 µM (inactive) in the test on OVCAR-4; 18.7 µM (inactive) with OVCAR-5; 7.24 µM (inactive) with OVCAR-8; 11.7 µM (inactive) with PC-3. Further, the GI50 was 6.17 µM (inactive) in the test on RPMI-8226; 8.83 µM (inactive) in the test on SK-MEL-28; 18.7 µM (inactive) with SK-MEL-5; 22.7 µM (inactive) in the test with SNB-75; 14.7 µM (inactive) with U-251; 13.1 µM (inactive) with UACC-62.
Consider `CCOC(=O)C1=CN2C(=N[C@H]3CCCC[C@@H]32)NC1=O`, for which the GI50 was > 100 µM (inactive) with BT-549; > 100 µM (inactive) with HCC 2998; above 100 µM in the test on HCT-15; > 100 µM (inactive) with HOP-92; > 100 µM (inactive) with LOX IMVI; > 100 µM (inactive) in the test with Malme-3M. For the same compound, the GI50 in the test on NCI-H226, in the test with OVCAR-3, in the test on OVCAR-4, with OVCAR-5, in the test on OVCAR-8 and in the test on PC-3 was > 100 µM (inactive) throughout. Moreover, the GI50 with RPMI-8226, in the test on SK-MEL-28, in the test with SK-MEL-5, with SNB-75, in the test on U-251 and in the test on UACC-62 was > 100 µM (inactive) throughout.
As to `NC(Cn1ccc(=O)c(O)c1)C(=O)O` (stereo not given) [MIMOSINE], the GI50 with BT-549 is > 100 µM (inactive); with HCC 2998 it was > 100 µM (inactive); in the test on HCT-15, above 100 µM; in the test with HOP-62 it was > 100 µM (inactive); in the test on HOP-92 it was > 100 µM (inactive); in the test on LOX IMVI, > 100 µM (inactive). For the same compound, the GI50 in the test on Malme-3M is 54.8 µM (inactive); in the test with NCI-H226, > 100 µM (inactive); in the test on OVCAR-3 it was > 100 µM (inactive); with OVCAR-4, > 100 µM (inactive); in the test on OVCAR-5 it was > 100 µM (inactive); in the test on OVCAR-8 it was > 100 µM (inactive). Moreover, the GI50 in the test on PC-3, in the test on RPMI-8226, in the test with SK-MEL-28, in the test on SK-MEL-5, with U-251 and with UACC-62 was > 100 µM (inactive) throughout.
